The record followed here is patent US20260327655A1, “SMALL-MOLECULE REGULATED ALTERNATIVE SPLICING” (priority 2023, published 2026).

The subject of one test is RS1-10. The test can be described thus: Dose-response profiling assay, RS1-10 Flp-In-293 cell line. It is filed as cell-based. The conditions noted are these: 18 hours, FIGS. 9D-9F. The method, then:
Single-copy insertion of an switch construct and subsequent cell-line generation was performed in Flp-In-293 cells according to manufacturer's protocols. The RS1-10 sequence fused to a Firefly Luciferase gene was cloned into a Flp-In compatible pcDNA5/FRT expression vector with a CMV promoter and BGH polyadenylation signal. Resulting Flp-In cell line carried a single-copy expression cassette (RSwitch-controlled) integrated into the genome. The RS1-10 Flp-In cell line was cultured in DMEM+10% FBS, collected after trypsinization, and then dispensed into 96-well plates (cell culture-treated). Each well of the plate was seeded with 1.0×10^5 cells in 100 μL culture medium. Subsequently, either DMSO vehicle or a splice modulator compound at specified doses was added to the wells of the plate. Triplicate wells were used for each condition tested in the experiment. Plates were then incubated for 18 hours in a tissue culture incubator (5% CO2, 37° C.). Endpoint analysis was performed by adding 100 uL of a Luciferase substrate, such as Steady-Luc Firefly Luciferase substrate, to each well of the assay plate. The liquid contents of each was transferred to a 96-well plate, mixed again for 2 min on an orbital shaker, and incubated at room temperature for 5 min. Finally, the luminescent signal from each well was measured with a plate reader. Each plotted data point on a graph in a figure represents a mean of 3 wells+/−standard deviation normalized to vehicle controls. A nonlinear regression curve fit of the plotted data points was generated in graphing software.

The next test has as its system RS1-10, HEK-293T cells. The test can be described thus: RS1-10 performance in HEK-293T cells. Particulars: CMV promoter, 18 hours, FIG. 10A. It is filed as cell-based, human. How it is done:
Human cell line HEK-293T cells or NIH-3T3 mouse fibroblast cell line cells were cultured in DMEM+10% FBS, collected after trypsinization, and then dispensed into 96-well plates (cell culture-treated). Each well of the plate was seeded with 1.0×10^5 cells in 100 μL culture medium. After a 1-hour incubation in the tissue culture incubator (5% CO2, 37 degrees C.), plasmid DNA was complexed with a transfection reagent, such as Lipofectamine 3000, and added to respective wells on the plate. Each well received an equivalent of 100 ng of plasmid DNA complexed with 0.15 μL Lipofectamine 3000. Triplicate wells were used for each condition tested in the experiment. The plasmid utilized in the experiments for HEK-293T cells and NIH-3T3 mouse fibroblast cells encoded a CMV promoter upstream of the RS1-10 construct that controlled the expression of a Firefly Luciferase gene followed by a SV40 polyadenylation signal. After a 10-minute incubation at room temperature, either DMSO vehicle or 24 A at specified doses was added to the wells of the plate. Plates were then incubated for 18 hours in a tissue culture incubator. Endpoint analysis was performed by adding 100 uL of a Luciferase substrate, such as Steady-Luc Firefly Luciferase substrate, to each well of the assay plate. […] Finally, the luminescent signal from each well was measured with a plate reader. […]

Test [1] relates to RS1-10 minigene (Firefly Luciferase), HEK-293T cells. The test can be described thus: Luciferase induction assay, RS1-10 with splice modulator compounds in HEK-293T cells. It is filed as cell-based. Particulars: Homo sapiens, 18 hours, n of 3, read-out: Mean fold-induction of luciferase (relative to vehicle control).
The subject of test [2] is RS3-13 minigene (Firefly Luciferase), HEK-293T cells. In words: Luciferase induction assay, RS3-13 with splice modulator compounds in HEK-293T cells. It counts as cell-based. The conditions noted are these: Homo sapiens, 18 hours, n of 3, read-out: Mean fold-induction of luciferase (relative to vehicle control).

The structures appear in SMILES notation.

Turning to `CCN1CC(c2ccc(-c3ccc(-c4ccc5nn(C)cc5c4)cc3O)nn2)C1` [Compound 24A, 2-[6-(1-ethylazetidin-3-yl)pyridazin-3-yl]-5-(2-methyl-2H-indazol-5-yl)phenol], in the test on RS1-10, the “fold-induction of luciferase signal, dose response” value is on record as “increase in fold-induction of luciferase signal with increasing concentrations”. Also, the fold-induction of luciferase result with RS1-10, HEK-293T cells is reported as “increasing fold-induction of luciferase with increasing concentrations of 24 A”. Further, the fold induction at 0.1 µM is 74.1 in test [1] (RS1-10, 100 nM) and 6.27 in test [2] (RS3-13, 100 nM). In addition, the fold induction at 1 µM in test [1] (RS1-10, 1,000 nM) amounted to 84; in test [2] (RS3-13, 1,000 nM) it was 42.4.
